This is an account of results in patent publication US20250353820A1, “ANTIVIRAL PYRAZOLOPYRIDINONE COMPOUNDS” (Novartis AG, priority 2019, published 2025).

The structures appear in SMILES notation. pIC50: −log10 of the molar value. Structures can show the parent of a compound that is named as a salt.

The test addresses human HSV DNA polymerase UL30 (Human herpesvirus 1 (strain 17) (HHV-1) (Human herpes simplex virus 1), UniProt P04293). The test is described as follows: biochemical. The note with it: 625 pM HSV polymerase, 20 minutes at room temperature; read-out: HSV-polymerase Biochemical IC50.
As to `Cn1nc(C(=O)NCc2ccc(C#N)cc2)c2c1C(=O)N(CC1(S(=O)(=O)N3CC[C@H](N)C3)CC1)CC2` [Example 142, (S)-6-((1-((3-Aminopyrrolidin-1-yl)sulfonyl)cyclopropyl)methyl)-N-(4-cyanobenzyl)-1-methyl-7-oxo-4,5,6,7-tetrahydro-1H-pyrazolo[3,4-c]pyridine-3-carboxamide], the pIC50 was 6.57.
To `Cn1nc(C(=O)NCc2ccc(F)cc2)c2c1C(=O)N(CC1(S(=O)(=O)C3CC3)CC1)CC2` [Example 5, 6-((1-(Cyclopropylsulfonyl)cyclopropyl)methyl)-N-(4-fluorobenzyl)-1-methyl-7-oxo-4,5,6,7-tetrahydro-1H-pyrazolo[3,4-c]pyridine-3-carboxamide] belongs 6.38.
To `Cn1nc(C(=O)NCc2ccc(C#N)cc2)c2c1C(=O)N(CC1(S(=O)(=O)C3(CCO)CC3)CC1)CC2` [Example 117, N-(4-Cyanobenzyl)-6-((1-((1-(2-hydroxyethyl)cyclopropyl)sulfonyl)cyclopropyl)methyl)-1-methyl-7-oxo-4,5,6,7-tetrahydro-1H-pyrazolo[3,4-c]pyridine-3-carboxamide] belongs 7.23; to `N#Cc1ccc(CNC(=O)c2nn(CC3(CO)CC3)c3c2CCN(CC2(S(=O)(=O)C4CC4)CC2)C3=O)cc1` [Example 47, N-(4-Cyanobenzyl)-6-((1-(cyclopropylsulfonyl)cyclopropyl)methyl)-1-((1-(hydroxymethyl)cyclopropyl)methyl)-7-oxo-4,5,6,7-tetrahydro-1H-pyrazolo[3,4-c]pyridine-3-carboxamide], 7.23.
Regarding `Cn1nc(C(=O)NCc2ccc(C#N)cc2)c2c1C(=O)N(CC1(S(=O)(=O)N3C[C@@H](N)[C@H](O)C3)CC1)CC2` [Example 139, 6-((1-(((3R,4R)-3-Amino-4-hydroxypyrrolidin-1-yl)sulfonyl)cyclopropyl)methyl)-N-(4-cyanobenzyl)-1-methyl-7-oxo-4,5,6,7-tetrahydro-1H-pyrazolo[3,4-c]pyridine-3-carboxamide], the pIC50 is 6.84.
For the compound `Cc1ncccc1NS(=O)(=O)C1(CN2CCc3c(C(=O)NCc4ccc(C#N)cc4)nn(C)c3C2=O)CC1` [Example 161], the pIC50 is 7.40.
As to `CS(=O)(=O)C1(CN2CCc3c(nn4c3C(=O)N(Cc3ccc(C#N)cc3)CC4)C2=O)CC1` [Example 46, 4-((8-((1-(Methylsulfonyl)cyclopropyl)methyl)-1,7-dioxo-3,4,7,8,9,10-hexahydropyrido[3′,4′: 3,4]pyrazolo[1,5-a]pyrazin-2 (1H)-yl)methyl)benzonitrile], the pIC50 was 5.75.
For the compound `Cn1nc(C(=O)NCc2ccc(Cl)cc2)c2c1C(=O)N(CC1(S(=O)(=O)N3CC(O)C3)CC1)CC2` [Example 150, N-(4-Chlorobenzyl)-6-((1-((3-hydroxyazetidin-1-yl)sulfonyl)cyclopropyl)methyl)-1-methyl-7-oxo-4,5,6,7-tetrahydro-1H-pyrazolo[3,4-c]pyridine-3-carboxamide], the pIC50 was 7.09.
In the case of `Cn1nc(C(=O)NCc2ccc(C#N)cc2)c2c1C(=O)N(CC1(S(=O)(=O)C(C)(C)CN3CCC(O)C3)CC1)CC2` (stereo not shown) [Example 68, N-(4-Cyanobenzyl)-6-((1-((1-(3-hydroxypyrrolidin-1-yl)-2-methylpropan-2-yl)sulfonyl)cyclopropyl)methyl)-1-methyl-7-oxo-4,5,6,7-tetrahydro-1H-pyrazolo[3,4-c]pyridine-3-carboxamide], the pIC50 is 7.68.
In the case of `CN(CCO)S(=O)(=O)C1(CN2CCc3c(C(=O)NCc4ccc(C#N)cc4)nn(C)c3C2=O)CC1` [Example 146, N-(4-Cyanobenzyl)-6-((1-(N-(2-hydroxyethyl)-N-methylsulfamoyl)cyclopropyl)methyl)-1-methyl-7-oxo-4,5,6,7-tetrahydro-1H-pyrazolo[3,4-c]pyridine-3-carboxamide], the pIC50 is 7.13.
Consider `COc1ccc(C)nc1NS(=O)(=O)C1(CN2CCc3c(C(=O)NCc4ccc(C#N)cc4)nn(C)c3C2=O)CC1` [Example 160], for which the pIC50 was 6.52.
Regarding `CC(C)(O)Cn1nc(C(=O)NCc2ccc(C#N)cc2)c2c1C(=O)N(CC1(S(C)(=O)=O)CC1)CC2` [Example 232], the pIC50 was 6.47.
Turning to `Cn1nc(C(=O)NCc2ccc(C#N)cc2)c2c1C(=O)N(CC1(S(=O)(=O)C(C)(C)COC(F)(F)CN)CC1)CC2` [Example 85, 6-((1-((1-(2-Amino-1,1-difluoroethoxy)-2-methylpropan-2-yl)sulfonyl)cyclopropyl)methyl)-N-(4-cyanobenzyl)-1-methyl-7-oxo-4,5,6,7-tetrahydro-1H-pyrazolo[3,4-c]pyridine-3-carboxamide], the pIC50 was 7.31.
For `Cn1nc(C(=O)NCc2ccc(Cl)cc2)c2c1C(=O)N(CC1(S(=O)(=O)C(C)(C)COCCO)CC1)CC2` [Example 88, N-(4-Chlorobenzyl)-6-((1-((1-(2-hydroxyethoxy)-2-methylpropan-2-yl)sulfonyl)cyclopropyl)methyl)-1-methyl-7-oxo-4,5,6,7-tetrahydro-1H-pyrazolo[3,4-c]pyridine-3-carboxamide], the pIC50 was 7.41.
For the compound `Cn1nc(C(=O)NCc2ccc(Cl)cc2)c2c1C(=O)N(CC1(S(=O)(=O)C(C)(CO)CO)CC1)CC2` [Example 175, N-(4-chlorobenzyl)-6-((1-((1,3-dihydroxy-2-methylpropan-2-yl)sulfonyl)cyclopropyl)methyl)-1-methyl-7-oxo-4,5,6,7-tetrahydro-1H-pyrazolo[3,4-c]pyridine-3-carboxamide], the pIC50 is 7.57.
To `Cn1nc(C(=O)NCc2ccc(C#N)cc2)c2c1C(=O)N(CC1(S(=O)(=O)C(C)(C)COCC(C)(C)N)CC1)CC2` [Example 103, 6-((1-((1-(2-Amino-2-methylpropoxy)-2-methylpropan-2-yl)sulfonyl)cyclopropyl)methyl)-N-(4-cyanobenzyl)-1-methyl-7-oxo-4,5,6,7-tetrahydro-1H-pyrazolo[3,4-c]pyridine-3-carboxamide] belongs 6.93; to `Cn1nc(C(=O)NCc2ccc(Cl)cc2)c2c1C(=O)N(CC1(S(=O)(=O)NC(C)(C)CO)CC1)CC2` [Example 148, N-(4-Chlorobenzyl)-6-((1-(N-(1-hydroxy-2-methylpropan-2-yl)sulfamoyl)cyclopropyl)methyl)-1-methyl-7-oxo-4,5,6,7-tetrahydro-1H-pyrazolo[3,4-c]pyridine-3-carboxamide], 6.81.
Consider `Cn1nc(C(=O)NCc2ccc(Cl)cc2)c2c1C(=O)N(CC1(S(=O)(=O)C(C)(C)[C@@H](O)CO)CC1)CC2` [Example 190, (S)—N-(4-Chlorobenzyl)-6-((1-((3,4-dihydroxy-2-methylbutan-2-yl)sulfonyl)cyclopropyl)methyl)-1-methyl-7-oxo-4,5,6,7-tetrahydro-1H-pyrazolo[3,4-c]pyridine-3-carboxamide], for which the pIC50 was 7.70.
`CC(C)(O)Cn1nc(C(=O)NCc2ccc(C#N)cc2)c2c1C(=O)N(CC1(S(=O)(=O)C3CC3)CC1)CC2` [Example 230]: the pIC50 was 7.47.
With `CN(C)CCOCC(C)(C)S(=O)(=O)C1(CN2CCc3c(C(=O)NCc4ccc(C#N)cc4)nn(C)c3C2=O)CC1` [Example 104, N-(4-Cyanobenzyl)-6-((1-((1-(2-(dimethylamino)ethoxy)-2-methylpropan-2-yl)sulfonyl)cyclopropyl)methyl)-1-methyl-7-oxo-4,5,6,7-tetrahydro-1H-pyrazolo[3,4-c]pyridine-3-carboxamide], the pIC50 is 6.97.
As for `CC(C)(CO)S(=O)(=O)C1(CN2CCc3c(C(=O)NCc4ccc(C#N)cc4)nn(CCO)c3C2=O)CC1` [Example 220], the pIC50 is 7.64.
As for `Cn1nc(C(=O)NCc2ccc(Cl)cc2)c2c1C(=O)N(CC1(S(=O)(=O)C(C)(C)[C@H](N)CO)CC1)CC2` [Example 214, (R)-6-((1-((3-Amino-4-hydroxy-2-methylbutan-2-yl)sulfonyl)cyclopropyl)methyl)-N-(4-chlorobenzyl)-1-methyl-7-oxo-4,5,6,7-tetrahydro-1H-pyrazolo[3,4-c]pyridine-3-carboxamide hydrochloride], the figure is 7.49.
As to `Cn1nc(C2=NOC(c3ccc(C#N)cc3)C2)c2c1C(=O)N(CC1(S(=O)(=O)C3CC3)CC1)CC2` (stereo not shown) [Example 31, 4-(3-(6-((1-(Cyclopropylsulfonyl)cyclopropyl)methyl)-1-methyl-7-oxo-4,5,6,7-tetrahydro-1H-pyrazolo[3,4-c]pyridin-3-yl)-4,5-dihydroisoxazol-5-yl)benzonitrile], the pIC50 is 6.53.
As for `N#Cc1ccc(CNC(=O)c2nn(CC3(O)CC3)c3c2CCN(CC2(S(=O)(=O)C4CC4)CC2)C3=O)cc1` [Example 228, N-(4-Cyanobenzyl)-6-((1-(cyclopropylsulfonyl)cyclopropyl)methyl)-1-((1-hydroxycyclopropyl)methyl)-7-oxo-4,5,6,7-tetrahydro-1H-pyrazolo[3,4-c]pyridine-3-carboxamide], the pIC50 was 7.25.
As for `Cn1nc(C(=O)NCc2ccc(Cl)cc2)c2c1C(=O)N(CC1(S(=O)(=O)NCCO)CC1)CC2` [Example 143, N-(4-Chlorobenzyl)-6-((1-(N-(2-hydroxyethyl)sulfamoyl)cyclopropyl)methyl)-1-methyl-7-oxo-4,5,6,7-tetrahydro-1H-pyrazolo[3,4-c]pyridine-3-carboxamide], the figure is 6.46; as for `Cn1nc(C(=O)NCc2ccc(Cl)cc2)c2c1C(=O)N(CC1(S(=O)(=O)NC(C)(CO)CO)CC1)CC2` [Example 153, N-(4-Chlorobenzyl)-6-((1-(N-(1,3-dihydroxy-2-methylpropan-2-yl)sulfamoyl)cyclopropyl)methyl)-1-methyl-7-oxo-4,5,6,7-tetrahydro-1H-pyrazolo[3,4-c]pyridine-3-carboxamide], 6.53; as for `Cn1nc(C(=O)NCc2ccc(C#N)cc2)c2c1C(=O)N(CC1(S(=O)(=O)C(C)(C)CNC(=O)CN)CC1)CC2` [Example 74, 6-((1-((1-(2-Aminoacetamido)-2-methylpropan-2-yl)sulfonyl)cyclopropyl)methyl)-N-(4-cyanobenzyl)-1-methyl-7-oxo-4,5,6,7-tetrahydro-1H-pyrazolo[3,4-c]pyridine-3-carboxamide], 7.19.
To `CC(C)(O)Cn1nc(C(=O)NCc2ccc(C#N)cc2)c2c1C(=O)N(CC1(S(=O)(=O)C(C)(C)CO)CC1)CC2` [Example 235] belongs 7.80.

Usually pIC50 stands for the IC50 on a negative log10 scale, so that one unit is a factor of ten.
